Results on two compounds are retold here after patent US6641848B1, “Saponin or sapogenol compositions for increasing collagen IV synthesis” (Parfums Christian Dior, priority 1998, dated 2003).

Assay [1] concerns collagen IV. The assay can be described thus: Amount of collagen IV in normal human keratinocyte culture (ELISA), soya seed saponins, 72 h. The following applies: 10 ng/ml. The class given is cell-based. Here is the method:
A soya seed extract commercially available under the reference SOY SELECT LOT 26040/2 from the Italian company Indena is used in this Example.
According to the marketing information, this extract contains saponins of the “soya saponin” category in a proportion of 29 to 30% by dry weight, with a predominance of group B soya sapogenols.
To validate the pertinence of the chosen experimental protocol, a series of these tests was carried out with a positive control, namely transforming growth factor beta (TGF-beta), which is known to increase the amount of collagen IV in a culture of human keratinocytes. Reference may be made to the article by Köning A. and Bruckner-Tuderman L., J. Cell. Biol., May 1992, 117(3), 679-85.
(§1) The cultures of normal human keratinocytes (NHK) are grown from a surgical specimen of healthy skin. In the present study, the tests were carried out on a strain of cells, denoted by HK 44, originating from a facelift performed on a person.
The keratinocytes are cultured in K-SFM growth medium, which is a complete specific keratinocyte culture medium (SFM=serum free medium) complemented with EGF (epidermal growth factor) and pituitary extract, said medium being marketed by Gibco, France. […]
(§2) The activity A of the product is expressed as a percentage and corresponds to the following formula: [formula] […]
Background: In an ELISA, binding on a coated surface is turned into a signal by an enzyme label.

Assay [2] deals with collagen IV. The assay can be described thus: Amount of collagen IV in normal human keratinocyte culture (ELISA), soya saponins with beta-ecdysone, 48 h. It is filed as cell-based. The following applies: beta-ecdysone alone, same experiment. Here is the method:
as §1
The keratinocytes are cultured in K-SFM growth medium, which is a complete specific keratinocyte culture medium (SFM=serum free medium) complemented with EGF (epidermal growth factor) and pituitary extract, said medium being marketed by Gibco, France. The cells were subcultured once from the primary culture in one passage, denoted by P1.
The cells are inoculated in 96-well culture plates at a rate of 25,000 NHK per well in K-SFM. After 24 h of incubation, which is necessary for good adhesion of the cells, the inoculation medium is withdrawn and replaced with K-SFM diluted 50-fold in the same base medium, but devoid of EGF and pituitary extract. […]
The controls will receive the same amount of DMSO solvent as for the product tested at a final concentration of 0.1%.
The culture supernatants are recovered for carrying out an ELISA, as explained below.
The protocol for assaying the collagen IV by an ELISA method is adapted from that described by DUMAS M. et al. in Mechanisms of Ageing and Development, 1994, 73, pages 179-187. […]
as §2

Consider “transforming growth factor beta [TGF-beta]”, for which the “Q (ng collagen IV/100 μg proteins; at 72 h)” value with collagen IV [1] (NHK strain HK 44) was 5.615 ± 0.595 ng collagen IV/100 μg proteins. In addition, the “A (%)” value in the assay on collagen IV [1] (vs DMSO control) was “+50%”.

On to `CC(C)(O)CC[C@@H](O)[C@](C)(O)[C@H]1CC[C@@]2(O)C3=CC(=O)[C@@H]4C[C@@H](O)[C@@H](O)C[C@]4(C)[C@H]3CC[C@]12C` [beta-ecdysone], for which, in the assay on collagen IV [2], the “increase in the amount of collagen IV” value was “No increase”.
